Data on 1 substance can be found in patent US4912036A, “Rapid differentiation of bacteria using cyclic polypeptide antibiotics” (Eastman Kodak Company, priority 1986, dated 1990).

One test concerns E. coli. Nature of the test: RIND VII reduction solution assay, ΔOD 635 nm. Type of test: cell-based, Escherichia coli. Particulars: E. coli 7 × 10^7 /ml, antibiotic 10^-4 molar. The protocol: (§1) Bacterial suspensions were prepared by growing the cells in BHT broth to stationary phase overnight at 37° C. P. auruginosa was grown with agitation. About 40 ml of each overnight culture was centrifuged, decanted and washed once with 0.05 molar potassium phosphate buffer or 0.05 molar N-2-hydroxy-ethylpiperazine-N'-2-ethanesulfonic acid (HEPES) buffer, pH 7.8, and resuspended in buffer.
TERGITOL 7 anionic surfactant was used to differentiate viable bacteria according to the prior art method. Various concentrations of TERGITOL 7 surfactant were mixed with a 10% glucose solution (50 μl), 3-(4,5-dimethyl-2-thiazolyl)-2,5-diphenyl-2N-tetrazolium bromide (MTT) (25 μl at 5 mg/ml methanol) or a RIND VII dispersion (1.5 ml) and phenazine methosulfate ETA (25 μl at 3 mg/ml methanol). The volume of each test solution was brought to 3 ml with potassium phosphate buffer. A cell suspension (100 μl at about 10^8 cells/ml) was then added. The solutions were incubated at 37° C. for 15 and 30 minutes in the presence of either E. coli, a gram(-) bacterium, or S. aureus, a gram(+) bacterium. The amount of dye formed was then determined visually, and graded as follows: "O" indicates no dye formation, +/- indicates faint dye formation, 1+ indicates light dye formation, 2+ indicates moderate dye formation, 3+ indicates strong dye formation, and 4+ indicates very strong dye formation. […]

The subject of another test is K. pneumoniae. Nature of the test: RIND VII reduction solution assay, ΔOD 635 nm. It is filed as cell-based, Klebsiella pneumoniae. The settings on record: K. pneumoniae 7 × 10^7 /ml, antibiotic 10^-4 molar.
In the next test the test system is S. pyogenes. Put plainly: RIND VII reduction solution assay, ΔOD 635 nm. Type of test: cell-based, Streptococcus pyogenes. The settings on record: cell concentration 1.5 × 10^8 /ml, antibiotic 10^-4 molar.
Test [1] has as its system S. faecalis. Put plainly: RIND XXIX reduction solution assay, Δ fluorescence. It is filed as cell-based, Streptococcus faecalis. Particulars: S. faecalis (gram +) about 5×10^7 cells/ml, gramicidin S 0.1 mg/ml, 37° C. The method, then: as §1
Dispersions containing RIND compounds were prepared by dissolving the RIND compound in N,N-dimethylformamide (DMF) at 16 mg compound per ml of solvent. An aliquot (250 μl) of the resulting solution was added to 500 μl of TRITON X-100 surfactant. This mixture was then added dropwise with stirring to 25 ml of 0.05 molar HEPES buffer. A dispersion of RIND XXIX was prepared similarly except that DMF was acidified with 0.1% sulfuric acid. […]
The solutions were incubated at 37° C. for 30 minutes, and the change in fluorescence emission (Δ fluorescence) was determined as the difference between the readings taken when the solutions were first mixed and then after 30 minutes incubation. Measurements were made in a commercially available MICROFLUOR Reader (available from Dynatech Laboratories, Alexandria, Virginia, U.S.A.), modified with an excitation filter at 540 nm, an emission filter at 620 nm and a Xenon lamp.

The next test has as its system P. aeruginosa. Nature of the test: RIND XXIX reduction solution assay, Δ fluorescence. It is filed as cell-based, Pseudomonas aeruginosa. Particulars: P. aeruginosa (gram -) about 5×10^7 cells/ml, gramicidin S 0.1 mg/ml, 37° C. The protocol: as §1
Dispersions containing RIND compounds were prepared by dissolving the RIND compound in N,N-dimethylformamide (DMF) at 16 mg compound per ml of solvent. An aliquot (250 μl) of the resulting solution was added to 500 μl of TRITON X-100 surfactant. This mixture was then added dropwise with stirring to 25 ml of 0.05 molar HEPES buffer. A dispersion of RIND XXIX was prepared similarly except that DMF was acidified with 0.1% sulfuric acid. Compositions containing water-compatible RIND compounds were prepared as described above except the surfactant was omitted.
Each test solution contained the following: dispersion of RIND XXIX (25 μl) prepared as described above, glucose (400 μl of 10% aqueous solution), tryptose (400 μl of 10% aqueous solution), trimethyl-1,4-benzoquinone ETA (500 μl of 1.5 mg/ml methanol). Aliquots (200 μl) of the mixture were mixed with solutions of the antibiotics (50 μl). The cell suspensions (50 μl) were then added. The final concentration of gramcidin S and tyrocidin were 0.1 mg/ml and 3.3 mg/ml, respectively. The final cell concentration was about 5×10^7 cells/ml. Cell control solutions contained all reagents except antibiotics. Background controls consisted of both buffer and solution controls. […]
The solutions were incubated at 37° C. for 30 minutes, and the change in fluorescence emission (Δ fluorescence) was determined as the difference between the readings taken when the solutions were first mixed and then after 30 minutes incubation. Measurements were made in a commercially available MICROFLUOR Reader (available from Dynatech Laboratories, Alexandria, Virginia, U.S.A.), modified with an excitation filter at 540 nm, an emission filter at 620 nm and a Xenon lamp. […]

In test [2] the test system is S. aureus. Nature of the test: MTT reduction solution assay, ΔOD 540 nm. Type of test: cell-based, Staphylococcus aureus. Particulars: S. aureus (+) 5×10^7, gramicidin S 0.00625 mg/ml, 37° C. The method, then: (§2) These examples illustrate the differentiation of bacteria using a tetrazolium salt and phenolic dye as the reducible compounds and two cyclic polypeptide antibiotics according to the present invention. The tetrazolium salt was 3-(4,5-dimethyl-2-thiazolyl) -2,5-diphenyl-2H-tetrazolium bromide (MTT) which forms a colored formazan dye when reduced. The phenolic dye was 2,6-dichloroindophenol (DCIP) which forms a colorless species when reduced.
(§3) Solutions of the reducible compounds were prepared with the following: HEPES buffer (3 ml, 0.05 molar, pH 7.5), TRITON X-100 nonionic surfactant (1% concentration), glucose (50 μl of 10% in water), tryptose (50 μl of a 10% solution in water), MTT (25 μl of 5 mg/ml methanol) or DCIP (25 μl of 3 mg/ml methanol) and phenazine methosultate ETA (25 μl of 3 mg/ml methanol).
(§4) Test solutions were prepared from the following: reducible compound solution from above (200 μl), 50 μl of either gramicidin S solution (6 mg/ml methanol and 9 ml of buffer) or tyrocidin solution (100 mg/ml methanol and 8 ml of buffer) and 50 μl of cell suspension. […] The change in optical density (ΔOD) was determined after 30 minutes at 37° C. at 540 nm for the MTT assay and at 620 nm for the DCIP assay using a commercially available spectrophotometer.

The subject of test [3] is S. faecalis. Put plainly: MTT reduction solution assay, ΔOD 540 nm. The settings on record: S. faecalis (+) 5×10^7, gramicidin S 0.00625 mg/ml, 37° C. It is filed as cell-based, Streptococcus faecalis. The method, then:
as §2, §3, §4
Background: Tetrazolium assays rely on reduction of a dye to a coloured formazan, in cell work by metabolically active cells.

Test [4] concerns S. aureus. Put plainly: DCIP reduction solution assay, ΔOD 620 nm. It is filed as cell-based, Staphylococcus aureus. The settings on record: S. aureus (+) 5×10^7, gramicidin S 0.00625 mg/ml, 37° C. The protocol: as §2, §3, §4
The next test deals with E. cloacae. Put plainly: DCIP reduction solution assay, ΔOD 620 nm. Type of test: cell-based, Enterobacter cloacae. The settings on record: E. cloacae (-) 5×10^7, gramicidin S 0.00625 mg/ml, 37° C. The method, then: as §2, §3, §4
A further test has as its system P. vulgaris. Put plainly: DCIP reduction solution assay, ΔOD 620 nm. Type of test: cell-based, Proteus vulgaris. The settings on record: P. vulgaris (-) 5×10^7, gramicidin S 0.00625 mg/ml, 37° C. The protocol:
as §2, §3, §4

Take gramicidin S: the “Corrected ΔOD (15 Minutes)” value was greater than 2.0 in the test on E. coli, greater than 2.0 in the test with K. pneumoniae and 0.186 in the test with S. pyogenes. Also, the “Δ Fluorescence (30 Minutes)” value is 0197 with S. faecalis [1] and greater than 4000 with P. aeruginosa. In addition, the “ΔOD, 540 nm after 30 Minutes” value turned out to be 0.177 in the test on S. aureus [2] and 0.073 in the test with S. faecalis [3]. For the same substance, the “ΔOD, 620 nm after 30 Minutes” value in the test with S. aureus [4] stood at 0.096; in the test on E. cloacae, 0.997; in the test on P. vulgaris, 1.029.
